In US9474790B2, “Stable, protracted GLP-1/glucagon receptor co-agonists for medical use” (Novo Nordisk A/S, priority 2013, dated 2016):
Numbered stars: 1 amine (or outer) side, 2 acyl side, 3 side chain; on linkers, the order of the positions; unused ones are H or OH. Bridge positions count the residues as written; N and C are the ends. Square brackets hold non-standard residues; d marks the D form. Side chains are listed from the residue outwards. Peptide text beside a SMILES is read from it. I, II: the chains in the order shown. * marks the point of attachment. C18 diacid = O=C(O)CCCCCCCCCCCCCCCCC(=O)*; γGlu = O=C(O)[C@H](CCC(=O)[*:2])N[*:1]; Ac4c = NC1(C(=O)O)CCC1; AEEA = NCCOCCOCC(=O)O; Aib = CC(C)(N)C(=O)O

molecular target: T1, human GLP-1 receptor (Homo sapiens, UniProt P43220); test: GLP-1 receptor binding, 125I-GLP-1 displacement SPA on isolated membranes; settings: displacement of 125I-GLP-1 from membranes; read-out: IC50 GLP-1R
T1 construct: expressed in transfected cells; host or cells: BHK cells (parent BHKTS13), clone FCW467-12A/KZ10-1, with CRE luciferase
Method in brief: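 SPA displacement of 125I-GLP-1(7-36)NH2 from membranes of BHK cells expressing human GLP-1 receptor, with WGA beads, in 50 mM HEPES, 5 mM EGTA, 5 mM MgCl2, 0.005% Tween 20, pH 7.4. Incubated 2 h at 30°C; IC50 by non-linear regression, run at ≤0.001% or 2.0% final serum albumin.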

T1 sequence (P43220 24-463): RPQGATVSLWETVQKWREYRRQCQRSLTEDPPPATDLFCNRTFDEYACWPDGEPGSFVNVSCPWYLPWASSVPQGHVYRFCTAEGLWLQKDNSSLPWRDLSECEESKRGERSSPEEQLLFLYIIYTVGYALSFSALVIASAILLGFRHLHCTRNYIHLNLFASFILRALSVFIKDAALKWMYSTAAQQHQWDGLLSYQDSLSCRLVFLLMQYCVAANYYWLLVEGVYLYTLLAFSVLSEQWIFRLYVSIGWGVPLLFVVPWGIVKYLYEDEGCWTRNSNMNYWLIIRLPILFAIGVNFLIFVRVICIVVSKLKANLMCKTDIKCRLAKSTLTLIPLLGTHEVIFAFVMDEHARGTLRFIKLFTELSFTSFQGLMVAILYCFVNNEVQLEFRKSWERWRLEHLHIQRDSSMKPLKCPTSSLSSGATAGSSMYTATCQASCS

IC50 [nM] | SMILES
1.4 | CC(C)C[C@H](NC(=O)[C@H](Cc1ccc(O)cc1)NC(=O)[C@H](CCCCN)NC(=O)[C@H](CO)NC(=O)[C@H](CC(C)C)NC(=O)[C@H](CC(=O)O)NC(=O)[C@H](CO)NC(=O)[C@@H](NC(=O)[C@H](Cc1ccccc1)NC(=O)[C@@H](NC(=O)CNC(=O)[C@H](Cc1c[nH]cn1)NC(=O)C(C)(C)NC(=O)[C@@H](N)Cc1c[nH]cn1)[C@@H](C)O)[C@@H](C)O)C(=O)N[C@@H](CCC(=O)O)C(=O)N[C@@H](CO)C(=O)N[C@@H](CCCNC(=N)N)C(=O)N[C@@H](CCCNC(=N)N)C(=O)N[C@@H](C)C(=O)N[C@@H](CCCNC(=N)N)C(=O)N[C@@H](CCC(=O)O)C(=O)N[C@@H](Cc1ccccc1)C(=O)N[C@H](C(=O)N[C@@H](CCC(N)=O)C(=O)N[C@@H](Cc1c[nH]c2ccccc12)C(=O)N[C@@H](CC(C)C)C(=O)N[C@@H](CC(C)C)C(=O)N[C@@H](CCCCNC(=O)CC[C@H](NC(=O)COCCOCCNC(=O)COCCOCCNC(=O)CC[C@H](NC(=O)CC[C@H](NC(=O)CCCCCCCCCCCCCCCCC(=O)O)C(=O)O)C(=O)O)C(=O)O)C(=O)N[C@H](C(N)=O)[C@@H](C)O)C(C)C [Example 30, N^ε28-[(4S)-4-carboxy-4-[[2-[2-[2-[[2-[2-[2-[[(4S)-4-carboxy-4-[[(4S)-4-carboxy-4-(17-carboxyheptadecanoylamino)butanoyl]amino]butanoyl]amino]ethoxy]ethoxy]acetyl]amino]ethoxy]ethoxy]acetyl]amino]butanoyl]-[Aib2,His3,Leu10,Glu15,Arg20,Glu21,Leu27,Lys28]-Glucagon amide] (H-H[Aib]HGTFTSDLSKYLESRRAREFVQWLLK([γGlu-AEEA-AEEA-γGlu-γGlu-C18 diacid])T-NH2; N-terminus assumed)
0.2 | CC(C)C[C@H](NC(=O)[C@H](Cc1ccc(O)cc1)NC(=O)[C@H](CCCCN)NC(=O)[C@H](CO)NC(=O)[C@H](CC(C)C)NC(=O)[C@H](CC(=O)O)NC(=O)[C@H](CO)NC(=O)[C@@H](NC(=O)[C@H](Cc1ccccc1)NC(=O)[C@@H](NC(=O)CNC(=O)[C@H](CCC(N)=O)NC(=O)C1(NC(=O)[C@@H](N)Cc2c[nH]cn2)CCC1)[C@@H](C)O)[C@@H](C)O)C(=O)N[C@@H](CCC(=O)O)C(=O)N[C@@H](CO)C(=O)N[C@@H](CCCCN)C(=O)N[C@@H](CCCNC(=N)N)C(=O)N[C@@H](C)C(=O)N[C@@H](CCCNC(=N)N)C(=O)N[C@@H](CCC(=O)O)C(=O)N[C@@H](Cc1ccccc1)C(=O)N[C@H](C(=O)N[C@@H](CCC(N)=O)C(=O)N[C@@H](Cc1c[nH]c2ccccc12)C(=O)N[C@@H](CC(C)C)C(=O)N[C@@H](CC(C)C)C(=O)N[C@@H](CCCCNC(=O)CNC(=O)[C@H](CO)NC(=O)[C@H](CCC(=O)O)NC(=O)CNC(=O)[C@H](CO)NC(=O)CC[C@H](NC(=O)CC[C@H](NC(=O)CCCCCCCCCCCCCCCCC(=O)O)C(=O)O)C(=O)O)C(=O)N[C@H](C(N)=O)[C@@H](C)O)C(C)C [Example 36, N^ε28-[2-[[(2S)-2-[[(2S)-4-carboxy-2-[[2-[[(2S)-2-[[(4S)-4-carboxy-4-[[(4S)-4-carboxy-4-(17-carboxyheptadecanoylamino)butanoyl]amino]butanoyl]amino]-3-hydroxypropanoyl]amino]acetyl]amino]butanoyl]amino]-3-hydroxypropanoyl]amino]acetyl]-[Acb2,Leu10,Glu15,Lys17, Arg20,Glu21,Leu27,Lys28]-Glucagon amide] (I: H-H[Ac4c]QGTFTSDLSKYLESKRAREFVQWLLKT-NH2 / II: {C18 diacid-γGlu-γGlu}-SGESG; amide I:28-II:C; N-terminus assumed)
0.2 | CC(C)C[C@H](NC(=O)[C@H](Cc1ccc(O)cc1)NC(=O)[C@H](CCCCN)NC(=O)[C@H](CO)NC(=O)[C@H](CC(C)C)NC(=O)[C@H](CC(=O)O)NC(=O)[C@H](CO)NC(=O)[C@@H](NC(=O)[C@H](Cc1ccccc1)NC(=O)[C@@H](NC(=O)CNC(=O)[C@H](CCC(N)=O)NC(=O)C(C)(C)NC(=O)[C@@H](N)Cc1c[nH]cn1)[C@@H](C)O)[C@@H](C)O)C(=O)N[C@@H](CCC(=O)O)C(=O)N[C@@H](CO)C(=O)N[C@@H](CCCNC(=N)N)C(=O)N[C@@H](CCCNC(=N)N)C(=O)N[C@@H](C)C(=O)N[C@@H](CCCNC(=N)N)C(=O)N[C@@H](CCC(=O)O)C(=O)N[C@@H](Cc1ccccc1)C(=O)N[C@H](C(=O)N[C@@H](CCC(N)=O)C(=O)N[C@@H](Cc1c[nH]c2ccccc12)C(=O)N[C@@H](CC(C)C)C(=O)N[C@@H](CC(C)C)C(=O)N[C@@H](CCCCNC(=O)CC[C@H](NC(=O)CC[C@H](NC(=O)COCCOCCNC(=O)COCCOCCNC(=O)CC[C@H](NC(=O)CC[C@H](NC(=O)CCCCCCCCCCCCCCCCC(=O)O)C(=O)O)C(=O)O)C(=O)O)C(=O)O)C(=O)N[C@H](C(N)=O)[C@@H](C)O)C(C)C [Example 60, N^ε28-[(4S)-4-carboxy-4-[[(4S)-4-carboxy-4-[[2-[2-[2-[[2-[2-[2-[[(4S)-4-carboxy-4-[[(4S)-4-carboxy-4-(17-carboxyheptadecanoylamino)butanoyl]amino]butanoyl]amino]ethoxy]ethoxy]acetyl]amino]ethoxy]ethoxy]acetyl]amino]butanoyl]amino]butanoyl]-[Aib2,Leu10,Glu15,Arg20,Glu21,Leu27,Lys28]-Glucagon amide] (H-H[Aib]QGTFTSDLSKYLESRRAREFVQWLLK([γGlu-γGlu-AEEA-AEEA-γGlu-γGlu-C18 diacid])T-NH2; N-terminus assumed)
0.3 | CC(C)C[C@H](NC(=O)[C@H](Cc1ccc(O)cc1)NC(=O)[C@H](CCCCN)NC(=O)[C@H](CO)NC(=O)[C@H](CC(C)C)NC(=O)[C@H](CC(=O)O)NC(=O)[C@H](CO)NC(=O)[C@@H](NC(=O)[C@H](Cc1ccccc1)NC(=O)[C@@H](NC(=O)CNC(=O)[C@H](CCC(N)=O)NC(=O)C(C)(C)NC(=O)[C@@H](N)Cc1c[nH]cn1)[C@@H](C)O)[C@@H](C)O)C(=O)N[C@@H](CCC(=O)O)C(=O)N[C@@H](CO)C(=O)N[C@@H](CCCNC(=N)N)C(=O)N[C@@H](CCCNC(=N)N)C(=O)N[C@@H](C)C(=O)N[C@@H](CCCNC(=N)N)C(=O)N[C@@H](CCC(=O)O)C(=O)N[C@@H](Cc1ccccc1)C(=O)N[C@H](C(=O)N[C@@H](CCC(N)=O)C(=O)N[C@@H](Cc1c[nH]c2ccccc12)C(=O)N[C@@H](CC(C)C)C(=O)N[C@@H](CC(C)C)C(=O)N[C@@H](CCCCNC(=O)CC[C@H](NC(=O)CC[C@H](NC(=O)[C@H](CO)NC(=O)[C@H](CCC(=O)O)NC(=O)[C@H](CO)NC(=O)CC[C@H](NC(=O)CC[C@H](NC(=O)CCCCCCCCCCCCCCCCC(=O)O)C(=O)O)C(=O)O)C(=O)O)C(=O)O)C(=O)N[C@H](C(N)=O)[C@@H](C)O)C(C)C [Example 67, N^ε28-[(4S)-4-carboxy-4-[[(4S)-4-carboxy-4-[[(2S)-2-[[(2S)-4-carboxy-2-[[(2S)-2-[[(4S)-4-carboxy-4-[[(4S)-4-carboxy-4-(17-carboxyheptadecanoylamino)butanoyl]amino]butanoyl]amino]-3-hydroxypropanoyl]amino]butanoyl]amino]-3-hydroxypropanoyl]amino]butanoyl]amino]butanoyl]-[Aib2,Leu10,Glu15,Arg20,Glu21,Leu27,Lys28]-Glucagon amide] (H-H[Aib]QGTFTSDLSKYLESRRAREFVQWLLK([γGlu-γGlu-Ser-Glu-Ser-γGlu-γGlu-C18 diacid])T-NH2; N-terminus assumed)
0.2 | CC(C)C[C@H](NC(=O)[C@H](Cc1ccc(O)cc1)NC(=O)[C@H](CCCCN)NC(=O)[C@H](CO)NC(=O)[C@H](CC(C)C)NC(=O)[C@H](CC(=O)O)NC(=O)[C@H](CO)NC(=O)[C@@H](NC(=O)[C@H](Cc1ccccc1)NC(=O)[C@@H](NC(=O)CNC(=O)[C@H](Cc1c[nH]cn1)NC(=O)C(C)(C)NC(=O)[C@@H](N)Cc1c[nH]cn1)[C@@H](C)O)[C@@H](C)O)C(=O)N[C@@H](CCC(=O)O)C(=O)N[C@@H](CO)C(=O)N[C@@H](CCCNC(=N)N)C(=O)N[C@@H](CCCNC(=N)N)C(=O)N[C@@H](C)C(=O)N[C@@H](CCCNC(=N)N)C(=O)N[C@@H](CC(=O)O)C(=O)N[C@@H](Cc1ccccc1)C(=O)N[C@H](C(=O)N[C@@H](CCC(N)=O)C(=O)N[C@@H](Cc1c[nH]c2ccccc12)C(=O)N[C@@H](CC(C)C)C(=O)N[C@@H](CC(C)C)C(=O)N[C@@H](CCCCNC(=O)CNC(=O)[C@H](CO)NC(=O)[C@H](CCC(=O)O)NC(=O)CNC(=O)[C@H](CO)NC(=O)CC[C@H](NC(=O)CC[C@H](NC(=O)CCCCCCCCCCCCCCCCC(=O)O)C(=O)O)C(=O)O)C(=O)N[C@H](C(N)=O)[C@@H](C)O)C(C)C [Example 37, N^ε28-[2-[[(2S)-2-[[(2S)-4-carboxy-2-[[2-[[(2S)-2-[[(4S)-4-carboxy-4-[[(4S)-4-carboxy-4-(17-carboxyheptadecanoylamino)butanoyl]amino]butanoyl]amino]-3-hydroxypropanoyl]amino]acetyl]amino]butanoyl]amino]-3-hydroxypropanoyl]amino]acetyl]-[Aib2,His3,Leu10,Glu15, Arg20,Leu27,Lys28]-Glucagon amide] (I: H-H[Aib]HGTFTSDLSKYLESRRARDFVQWLLKT-NH2 / II: {C18 diacid-γGlu-γGlu}-SGESG; amide I:28-II:C; N-terminus assumed)
